Experimental data as given in US6235738A, “Diphenyl-substituted heterocycles with 6-membered ring, processes for the preparation thereof and the use thereof as medicaments” (Boehringer Ingelheim Pharma KG, priority 1998, dated 2001).

What was measured:
[1] = test system: AMPA receptor; test: Inhibition of the signal induced by kainate on AMPA receptor (electrophysiology on neuronal cells, Patch-Clamp method); assay type: cell-based; settings: concentration not given
Method: The effected on AMPA receptor was tested by electrophysiology on neuronal cells (Patch-Clamp method) (M. L. Mayer, L. Vyklicky and G. L. Westbrook, J. Physiol. 415(1989) 329-350).
Inhibition of the signal induced by kainate on AMPA receptor

[2] = molecular target: Na^+ canal site 2 binding site; test: Affinity for the "Na^+ canal site 2" binding site; settings: tests typically at a test concentration of 10 μM
Method: The test of affinity for the "Na^+ canal site 2" binding site was carried out as described by G. B. Brown (J. Neurosci. 6 (1986) 2064). Tests were carried out typically at a test concentration of 10 μM.

Ki [2]	Structure (SMILES)	AMPA Inh. [1]
4000 nM	CN(C)CCOc1ccccc1-c1ccnc(-c2ccccc2)n1 [Example 4, 4-{2-[2-(N,N-Dimethylamino)ethyl]oxy-phenyl}-2-phenyl-pyrimidine]	96%
2400 nM	CN(C)CCOc1ccccc1-c1cnnc(-c2ccccc2)n1 [Example 7, 5-{2-[2-(N,N-Dimethylamino)ethyl]oxy-phenyl}-3-phenyl-1,2,4-triazine]	98%
2800 nM	CN(C)CCOc1ccccc1-c1ncnc(-c2ccccc2)n1 [Example 6, 2-{2-[2-(N,N-Dimethylamino)ethyl]oxy-phenyl}-4-phenyl-1,3,5-triazine]	66%
–	CN(C)CCOc1ccccc1-c1nncc(-c2ccccc2)n1 [Example 8, 3-{2-[2-(N,N-Dimethylamino)ethyl]oxy-phenyl}-5-phenyl-1,2,4-triazine]	95%
